Assay results taken from patent publication US20240002393A1, “SUBSTITUTED BENZO[f][l ,2,4JTRIAZOL0[4,3-a][l ,4J[…] GABA A GAMMA! POSITIVE ALLOSTERIC MODULATORS” (Hoffmann-La Roche Inc., priority 2020, published 2024).
Values joined by “and” are separate entries in the source; they are usually repeats but may differ in a detail not shown here. Equal entries are not always repeated.

Key:
[1] = target: h-GABA-A α2β2γ1 (Homo sapiens (Human), UniProt P47869+Q8N1C3); experiment: Two-electrode voltage clamp electrophysiology in Xenopus oocytes expressing GABAA receptors; assay type: cell-based; settings: for Efficacy (GABA)%: % modulation of GABA EC20 = 100*(Fold increase−1), compound at 30-fold Ki; for Fold increase h-GABA-A α2β2γ1 oocyte @ 30-fold Ki: GABA EC20, test compound at about 30-fold its Ki α2β2γ1, at least 3 oocytes
Experimental: Xenopus laevis oocytes at maturation stages V-VI were used for the expression of cloned mRNA encoding GABAA receptor subunits. Oocytes ready for RNA micro-injection were bought from Ecocyte, Castrop-Rauxel, Germany and stored in modified Barth's medium (composition in mM: NaCl 88, KCl 1, NaHCO3 2.4, HEPES 10, MgSO4 0.82, CaNO3 0.33, CaCl2 0.33, pH=7.5) at 20° C. until the experiment.
Oocytes were plated in 96-well plates for microinjection using the Roboinject automated instrument (MultiChannelSystems, Reutlingen, Germany). Approximately 50 nL of an aqueous solution containing the RNA transcripts for the subunits of the desired GABAA receptor subtype was injected into each oocyte. […] Oocytes were kept in modified Barth's medium (composition in mM: NaCl 88, KCl 1, NaHCO3 […], HEPES 10, MgSO4 0.82, CaNO3 0.33, CaCl2 0.33, pH=7.5) at 20° C. until the experiment.
Electrophysiological experiments were performed using the Roboocyte instrument (MultiChannelSystems, Reutlingen, Germany) on days 3 to 5 after the micro-injection of mRNA. During the experiment the oocytes were constantly superfused by a solution containing (in mM) NaCl 90, KCl 1, HEPES 5, MgCl2 1 CaCl2 1 (pH 7.4). Oocytes were impaled by two glass microelectrodes (resistance: 0.5-0.8 MΩ) which were filled with a solution containing KCl 1M+K-acetate 1.5 M and voltage-clamped to −80 mV. The recordings were performed at room temperature using the Roboocyte two-electrode voltage clamp system (Multichannelsystem). After an initial equilibration period of 1.5 min GABA was added for 1.5 min at a concentration evoking approximately 20% of a maximal current response (EC20). After another rest interval of 2.5 min GABA was again added evoking a response of similar amplitude and shape. […] Current traces were recorded at a digitization rate of 10 Hz during and shortly before and after the GABA application.
Each compound and concentration was tested on at least 3 oocytes. Different oocytes were used for different compound concentrations.
For the analysis, the digitized current traces of the first and second GABA response were superimposed and, if necessary, rescaled to equal maximal amplitudes. The ratio between the two responses during the time interval of test compound application was calculated point by point. The extremum of the resulting “ratio trace” was taken as the efficacy (“Fold increase”) of the compound expressed as “% modulation of GABA EC20” (100*(Fold increase−1)).

[2] = target: human GABAA α2β2γ1 receptor (Homo sapiens (Human), UniProt P47869+Q8N1C3); experiment: Radioligand binding assay, [3H]RO7239181 competition, γ1-containing GABAA subtypes; settings: for Ki: HEK293F membranes, [3H]RO7239181 20-30 nM, mean of two determinations, read-out: Ki h-GABAA α2β2γ1; for γ2/γ1 Selectivity Ratio: Ki α1β3γ2 (nM)/Ki α2β2γ1 (nM); for LogSel: Log[Ki α1β3γ2 (nM)/Ki α2β2γ1 (nM)]
Experimental: (§1) The affinity of compounds at GABAA γ1 subunit-containing receptors was measured by competition for [^3H]RO7239181 (67.3 Ci/mmol; Roche) binding to membranes from HEK293F cells (ThermoFisher R79007) expressing human (transiently transfected) receptors of composition α5β2γ1, α2β2γ1, α1β2γ1.
(§2) Harvested pellets from HEK293F cells expressing the different GABAA receptor subtypes were resuspended in Mannitol Buffer pH 7.2-7.4 (Mannitol 0.29M, Triethylamine 10 mM, Acetic acid 10 mM, EDTA 1 mM plus protease inhibitors (20 tablets Complete, Roche Diagnostics Cat. No. 05 056 489 001 per liter)), washed two times and then resuspended at 1:10 to 1:15 dilution in the same buffer. Cell disruption was performed by stirring the suspension in a Parr vessel #4637 at 435 psi for 15 minutes, and then the suspensions were centrifuged at 1000×g for 15 minutes at 4° C. (Beckman Avanti J-HC; rotor JS)-4.2). The supernatant (S1) was transferred in a 21 Schott flask and the pellet (P1) was resuspended with Mannitol Buffer up to 175 ml. The resuspended pellet was transferred into a 250 ml Corning centrifugal beaker and centrifuged at 1500×g for 10 minutes at 4° C. (Beckman Avanti J-HC; rotor JS)-4.2). The supernatant (S1) was then transferred in the 21 Schott flask and the pellet was discarded. The supernatants (S1) were centrifuged in 500 ml Beckman polypropylene centrifugal beaker at 15,000×g for 30 minutes at 4° C. (Beckman Avanti J-20 XP; rotor JLA-10.500). The pellet (P2) was resuspended with Mannitol Buffer 1:1 and frozen at −80° C. The supernatant (S2) was centrifuged in 100 ml Beckman polypropylene centrifugal tubes at 48000×g for 50 minutes at […] (Beckman Avanti J-20 XP; rotor JA-18). The supernatant (S3) was discarded and the pellet (P3) was resuspended with 1:1 Mannitol Buffer. The P2 and P3 protein concentration was determined with the BIORAD Standard assay method with bovine serum albumin as standard and measured on the NANO-Drop 1000. The membrane suspension was aliquots (500 μl per tube) and stored at −80° C. until required.
(§3) Membrane homogenates were resuspended and polytronised (Polytron PT1200E Kinematica AG) in Potassium Phosphate 10 mM, KCl 100 mM binding buffer at pH 7.4 to a final assay concentration determined with a previous experiment.
(§4) Assays were incubated to equilibrium for 1 hour at 4° C. and then, membranes were filtered onto unifilter (96-well white microplate with bonded GF/C filters preincubated 20-50 minutes in 0.3% Polyethylenimine) with a Filtermate 196 harvester (Packard BioScience) and washed 4 times with cold Potassium Phosphate 10 mM pH 7.4, KCl 100 mM binding buffer. After drying, filter-retained radioactivity was detected by liquid scintillation counting. K, values were calculated using Excel-Fit (Microsoft) and are the means of two determinations.

[3] = target: human GABAA α1β2γ1 receptor (Homo sapiens (Human), UniProt P14867+Q8N1C3); experiment: as above; settings: HEK293F membranes, [3H]RO7239181 20-30 nM, mean of two determinations
Experimental: as §1, §2, §3, §4

| Structure (SMILES) | Efficacy (GABA)% [1] | Fold increase h-GABA-A α2β2γ1 oocyte @ 30-fold Ki [1] | Ki [2] | γ2/γ1 Selectivity Ratio [2] | LogSel [2] | Ki [3] |
| --- | --- | --- | --- | --- | --- | --- |
| C[C@@H]1N=C(c2ccccc2F)c2c(ccc(Br)c2Cl)-n2cnnc21 [Example 30, (4S)-8-bromo-7-chloro-6-(2-fluorophenyl)-4-methyl-4H-[1,2,4]triazolo[4,3-a][1,4]benzodiazepine] | 57% | 1.57 | 43.6 nM | 13.3 | 1.13 and 1.1 | 65 nM |
| OC1N=C(c2c(F)cccc2F)c2c(ccc(Br)c2Cl)-n2cnnc21 (centres unmarked) [Example 31, 8-bromo-7-chloro-6-(2,6-difluorophenyl)-4H-[1,2,4]triazolo[4,3-a][1,4]benzodiazepin-4-ol] | 74% | 1.74 | 41 nM | 17.3 | 1.24 | 39.7 nM |
| C[C@@H]1N=C(c2ccccc2F)c2c(ccc(Br)c2Cl)-n2c(-c3cccnn3)nnc21 [Example 32, (4S)-8-bromo-7-chloro-6-(2-fluorophenyl)-4-methyl-1-pyridazin-3-yl-4H-[1,2,4]triazolo[4,3-a][1,4]benzodiazepine] | 105% | 2.05 | 10.5 nM | 98.2 | 1.99 | 33.3 nM |
| OC1N=C(c2ccccc2F)c2c(ccc(Br)c2Cl)-n2c(-c3cccnn3)nnc21 (centres unmarked) [Example 35, 8-bromo-7-chloro-6-(2-fluorophenyl)-1-pyridazin-3-yl-4H-[1,2,4]triazolo[4,3-a][1,4]benzodiazepin-4-ol] | 108% | 2.08 | 78.6 nM | 35.7 | 1.55 | 640 nM |
| C[C@@H]1N=C(c2c(F)cccc2F)c2c(ccc(Br)c2Cl)-n2cnnc21 [Example 51, (4S)-8-bromo-7-chloro-6-(2,6-difluorophenyl)-4-methyl-4H-[1,2,4]triazolo[4,3-a][1,4]benzodiazepine] | 56% | 1.56 | 4.9 nM | 79.5 and 80 | 1.9 | 9 nM |
| C[C@@H]1N=C(c2c(F)cccc2F)c2c(ccc(Cl)c2Cl)-n2c(-c3ccncn3)nnc21 [Example 52, (4S)-7,8-dichloro-6-(2,6-difluorophenyl)-4-methyl-1-pyrimidin-4-yl-4H-[1,2,4]triazolo[4,3-a][1,4]benzodiazepine] | 100% | 2.00 | 5.7 nM | 112.4 | 2.05 | 10.2 nM |
| C[C@@H]1N=C(c2c(F)cccc2F)c2c(ccc(Cl)c2Cl)-n2c(-c3cnn(C)c3)nnc21 [Example 53, (4S)-7,8-dichloro-6-(2,6-difluorophenyl)-4-methyl-1-(1-methylpyrazol-4-yl)-4H-[1,2,4]triazolo[4,3-a][1,4]benzodiazepine] | 32% | 1.32 | 3 nM | 82.0 | 1.91 | 14.4 nM |
| COC[C@@H]1N=C(c2c(F)cccc2F)c2c(ccc(C(F)(F)F)c2Cl)-n2c(C)nnc21 [Example 105, (4R)-7-chloro-6-(2,6-difluorophenyl)-4-(methoxymethyl)-1-methyl-8-(trifluoromethyl)-4H-[1,2,4]triazolo[4,3-a][1,4]benzodiazepine] | 75% | 1.75 | 99.3 nM | 73.9 | 1.87 | – |
| Cc1nnc2n1-c1ccc(C(F)(F)F)c(Cl)c1C(c1c(F)cccc1F)=N[C@H]2CO [Example 106, [(4R)-7-chloro-6-(2,6-difluorophenyl)-1-methyl-8-(trifluoromethyl)-4H-[1,2,4]triazlo[4,3-a][1,4]benzodiazepin-4-yl]methanol] | 121% | 2.21 | 71.3 nM | 107.1 | 2.03 | – |
| C[C@@H]1N=C(c2c(F)cccc2F)c2c(ccc(C(F)(F)F)c2Cl)-n2cnnc21 [Example 107, (4S)-7-chloro-6-(2,6-difluorophenyl)-4-methyl-8-(trifluoromethyl)-4H-[1,2,4]triazolo[4,3-a][1,4]benzodiazepine] | 147% | 2.47 | 68.3 nM | 51.8 | 1.71 | – |
| CCc1ccc2c(c1Cl)C(c1c(F)cccc1F)=N[C@@H](C)c1nnc(C)n1-2 [Example 109, (4S)-7-chloro-6-(2,6-difluorophenyl)-8-ethyl-1,4-dimethyl-4H-[1,2,4]triazolo[4,3-a][1,4]benzodiazepine] | 230% | 3.30 | 65.8 nM | 11.5 | 1.06 | – |
